Results from patent publication US20230339981A1, “KRAS G12D MODULATING COMPOUNDS” (priority 2022, published 2023).

Tests used:
[1] = molecular target: GDP-loaded KRAS G12D (Homo sapiens (Human), UniProt P01116, G12D); assay: KRAS G12D (GDP) biochemical assay (TR-FRET probe displacement); type: binding; settings: 2 hours
Summary of the method: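 Compound pre-incubated 30 min with GDP-loaded KRAS G12D in 50 mM Hepes pH 7.4, 150 mM NaCl, 5 mM MgCl2, 0.005% Tween-20, then Eu-streptavidin and TR-FRET probe added. After 2 h at room temperature, TR-FRET ratio read; IC50 is 50% ratio decrease, sigmoidal fit.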

[2] = system: GP2D (KRAS G12D) cells; assay: 2D cell viability assay (CellTiter-Glo); type: cell-based; settings: GP2d, 96 h, 4 days
Summary of the method: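 GP2D (KRAS G12D) cells, 1000/well in RPMI + 10% FBS, were plated onto compound (1:3 DMSO series) and grown 4 days at 37 °C, 5% CO2 in 2D. CellTiter-Glo luminescence was read; EC50 is the concentration giving 50% signal decrease, from sigmoidal fit.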

GDP-loaded KRAS G12D, sequence (P01116-2 other isoform, or with tags, fused parts or gaps G12D): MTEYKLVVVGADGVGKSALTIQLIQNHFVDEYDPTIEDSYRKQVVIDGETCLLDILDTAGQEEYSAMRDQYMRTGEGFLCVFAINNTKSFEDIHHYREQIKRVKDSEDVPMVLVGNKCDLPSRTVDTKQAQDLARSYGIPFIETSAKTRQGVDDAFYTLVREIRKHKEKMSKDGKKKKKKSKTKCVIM

SMILES | IC50 [1] [nM] | EC50 [2] [nM]
C#Cc1c(F)ccc2cccc(-c3nc4c5c(nc(OC[C@@]67CCCN6[C@H](COc6cccc(S(F)(F)(F)(F)F)c6)CC7)nc5c3F)N3C[C@H]5CC[C@H](N5)[C@H]3CCC4)c12 [Example 118, (6aR,7S,10R)-2-(8-ethynyl-7-fluoronaphthalen-1-yl)-1-fluoro-13-(((3S,7aS)-3-((3-(pentafluoro-λ^6-sulfaneyl)phenoxy)methyl)tetrahydro-1H-pyrrolizin-7a(5H)-yl)methoxy)-5,6,6a,7,8,9,10,11-octahydro-4H-3,11a,12,14,15-pentaaza-7,10-methanocyclohepta[4,5]cycloocta[1,2,3-de]naphthalene] | 0.4 | 72.7
C#Cc1c(F)ccc2cc(O)cc(-c3nc4c5c(nc(OCC6(CN7CCC(Oc8ccnc(C(F)(F)F)n8)CC7)CC6)nc5c3F)N3C[C@H]5CC[C@H](N5)[C@H]3CC4)c12 [Example 180, 5-ethynyl-6-fluoro-4-((5aR,6S,9R)-1-fluoro-12-((1-((4-((2-(trifluoromethyl)pyrimidin-4-yl)oxy)piperidin-1-yl)methyl)cyclopropyl)methoxy)-4,5,5a,6,7,8,9,10-octahydro-3,10a,11,13,14-pentaaza-6,9-methanonaphtho[1,8-ab]heptalen-2-yl)naphthalen-2-ol] | 0.8 | 5.1
CCc1c(F)ccc2cccc(-c3nc4c5c(nc(OC[C@@]67CCCN6C[C@H](F)C7)nc5c3F)N3C[C@H]5CC[C@H](N5)[C@@H]3[C@@H](C)C4)c12 [Example 131, (5S,5aS,6S,9R)-2-(8-ethyl-7-fluoronaphthalen-1-yl)-1-fluoro-12-(((2R,7aS)-2-fluorotetrahydro-1H-pyrrolizin-7a(5H)-yl)methoxy)-5-methyl-4,5,5a,6,7,8,9,10-octahydro-3,10a,11,13,14-pentaaza-6,9-methanonaphtho[1,8-ab]heptalene] | 55.3 | 100
C#Cc1c(F)ccc2cccc(-c3nc4c5c(nc(OC[C@@]67CCCN6[C@H](COc6cccc(S(F)(F)(F)(F)F)c6)CC7)nc5c3F)N3C[C@H]5CC[C@H](N5)[C@@H]3[C@@H](C)C4)c12 [Example 105, (5S,5aS,6S,9R)-2-(8-ethynyl-7-fluoronaphthalen-1-yl)-1-fluoro-5-methyl-12-(((3S,7aS)-3-((3-(pentafluoro-λ^6-sulfaneyl)phenoxy)methyl)tetrahydro-1H-pyrrolizin-7a(5H)-yl)methoxy)-4,5,5a,6,7,8,9,10-octahydro-3,10a,11,13,14-pentaaza-6,9-methanonaphtho[1,8-ab]heptalene] | 5.3 | 435
C#Cc1c(F)ccc2cccc(-c3nc4c5c(nc(OCC6(CN7CC[C@H](OC(F)(F)F)C7)CC6)nc5c3F)N3C[C@H]5CC[C@H](N5)[C@@H]3[C@@H](C)C4)c12 [Example 89, (5S,5aS,6S,9R)-2-(8-ethynyl-7-fluoronaphthalen-1-yl)-1-fluoro-5-methyl-12-((1-(((S)-3-(trifluoromethoxy)pyrrolidin-1-yl)methyl)cyclopropyl)methoxy)-4,5,5a,6,7,8,9,10-octahydro-3,10a,11,13,14-pentaaza-6,9-methanonaphtho[1,8-ab]heptalene] | 50.9 | 379
C=C(Cl)c1c(C)ccc2cc(O)cc(-c3nc4c5c(nc(OC[C@@]67CCCN6C[C@H](F)C7)nc5c3F)N3CC5CCC(N5)[C@H]3CO4)c12 (stereo in doubt) [Example 74, 5-(1-chlorovinyl)-4-((5aS,6R,9S)-1-fluoro-12-(((2R,7aS)-2-fluorotetrahydro-1H-pyrrolizin-7a(5H)-yl)methoxy)-5a,6,7,8,9,10-hexahydro-5H-4-oxa-3,10a,11,13,14-pentaaza-6,9-methanonaphtho[1,8-ab]heptalen-2-yl)-6-methylnaphthalen-2-ol] | 16 | 310
C#Cc1c(F)ccc2cccc(-c3nc4c5c(nc(OCC6(CN7CC[C@H](OC(F)(F)F)C7)CC6)nc5c3F)N3C[C@H]5CC[C@H](N5)[C@H]3CCC4)c12 [Example 126, (6aR,7S,10R)-2-(8-ethynyl-7-fluoronaphthalen-1-yl)-1-fluoro-13-((1-(((S)-3-(trifluoromethoxy)pyrrolidin-1-yl)methyl)cyclopropyl)methoxy)-5,6,6a,7,8,9,10,11-octahydro-4H-3,11a,12,14,15-pentaaza-7,10-methanocyclohepta[4,5]cycloocta[1,2,3-de]naphthalene] | 2 | 94.4
C#Cc1c(F)ccc2cccc(-c3nc4c5c(nc(OC[C@@]67CCCN6C[C@H](OC(C(F)(F)F)(C(F)(F)F)C(F)(F)F)C7)nc5c3F)N3C[C@H]5CC[C@H](N5)[C@H]3CC4)c12 [Example 130, (5aR,6S,9R)-2-(8-ethynyl-7-fluoronaphthalen-1-yl)-1-fluoro-12-((trans-2-((1,1,1,3,3,3-hexafluoro-2-(trifluoromethyl)propan-2-yl)oxy)tetrahydro-1H-pyrrolizin-7a(5H)-yl)methoxy)-4,5,5a,6,7,8,9,10-octahydro-3,10a,11,13,14-pentaaza-6,9-methanonaphtho[1,8-ab]heptalene] | 100 | 100
C#Cc1c(F)ccc2cc(O)cc(-c3nc4c5c(nc(OC[C@@]67CCCN6C[C@H](F)C7)nc5c3F)N3C[C@H]5CC[C@H](N5)[C@@H]3[C@H](C)C4)c12 [Example 79, 5-ethynyl-6-fluoro-4-((5R,5aS,6S,9R)-1-fluoro-12-(((2R,7aS)-2-fluorotetrahydro-1H-pyrrolizin-7a(5H)-yl)methoxy)-5-methyl-4,5,5a,6,7,8,9,10-octahydro-3,10a,11,13,14-pentaaza-6,9-methanonaphtho[1,8-ab]heptalen-2-yl)naphthalen-2-ol] | 7 | 15.3
C#Cc1c(F)ccc2cccc(-c3nc4c5c(nc(OC[C@]67CCCN6C[C@H](OC(C(F)(F)F)(C(F)(F)F)C(F)(F)F)C7)nc5c3F)N3C[C@H]5CC[C@H](N5)[C@H]3CC4)c12 [Example 145, (5aR,6S,9R)-2-(8-ethynyl-7-fluoronaphthalen-1-yl)-1-fluoro-12-((cis-2-((1,1,1,3,3,3-hexafluoro-2-(trifluoromethyl)propan-2-yl)oxy)tetrahydro-1H-pyrrolizin-7a(5H)-yl)methoxy)-4,5,5a,6,7,8,9,10-octahydro-3,10a,11,13,14-pentaaza-6,9-methanonaphtho[1,8-ab]heptalene] | 100 | 100
C#Cc1c(F)ccc2cccc(-c3nc4c5c(nc(OCC6(CN7CCC8(CC7)CC8)CC6)nc5c3F)N3C[C@H]5CC[C@H](N5)[C@H]3CCC4)c12 [Example 178, (6aR,7S,10R)-13-((1-((6-azaspiro[2.5]octan-6-yl)methyl)cyclopropyl)methoxy)-2-(8-ethynyl-7-fluoronaphthalen-1-yl)-1-fluoro-5,6,6a,7,8,9,10,11-octahydro-4H-3,11a,12,14,15-pentaaza-7,10-methanocyclohepta[4,5]cycloocta[1,2,3-de]naphthalene] | 0.7 | 37.4
C#Cc1c(F)ccc2cc(O)cc(-c3nc4c5c(nc(OCC6(CN7CC[C@@H](C(F)(F)F)C7)CC6)nc5c3F)N3C[C@H]5CC[C@H](N5)[C@H]3CO4)c12 [Example 43, 5-ethynyl-6-fluoro-4-((5aS,6S,9R)-1-fluoro-12-((1-(((R)-3-(trifluoromethyl)pyrrolidin-1-yl)methyl)cyclopropyl)methoxy)-5a,6,7,8,9,10-hexahydro-5H-4-oxa-3,10a,11,13,14-pentaaza-6,9-methanonaphtho[1,8-ab]heptalen-2-yl)naphthalen-2-ol] | 0.6 | 5
